Measurements taken from patent US20210068400A1, “COMPOSITIONS CONTAINING COMBINATIONS OF NITROGEN-FIXING BACTERIA AND ADDITIONAL AGENTS AND THEIR USE IN FIXING NITROGEN IN PLANT SPECIES” (GRACE BREEDING NITROGEN FIXATION TECHNOLOGIES LTD., priority 2018, published 2021).
Several values for one entry are separate records, joined by “and”; a condition that tells them apart may be missing. Identical values can stand only once. One block for each molecule: values may come before it.

Columns and labels:
maize plants [1] = experiment: Maize field trial 4, total leaf nitrogen content (Example 4); format: in vivo, maize (Zea mays); settings: maize leaves, 3 months after sowing
Experimental: Generally, the nitrogen content of the growing plant in the field study was measured using a spectrophotometric method based on the standard method “4500-NO3_I. Cadmium Reduction Flow Injection Method” published by the Standard Methods Organization (<https://www.standardmethods.org/doi/full/10.2105/SMWW.2882.089). This method is based on the conversion of nitrates in an aqueous plant material extract to nitrites by passing the extract through a copperized cadmium column. Subsequent processing steps convert the nitrites to a magenta-colored dye having an absorbance peak at 540 nm.
This trial was sown during the Israeli growing season of 2018 using the pioneer maize silage variety number W86. The field was washed from possible nitrogen using sprinkler irrigation. The combination treatments administered to the plants which are of relevance for the present study were: • PC. Positive Control—full commercial nitrogen. The plants were treated with 30 units of nitrogen per 1000 m^2 by means of applying to this area 60 kg urea containing 46% urea. • NC. Negative Control—no nitrogen. • 1. […]
The average total leaf nitrogen content was measured at one timepoint during growth of the maize plants, 3 months after sowing.

wheat (Galil variety) = experiment: Wheat field trial 5 (Example 5); format: in vivo
Experimental: Two different agricultural sites in Israel were selected for field trials in which the effects of compositions of the present invention on wheat crops were investigated. The various compositions were administered to the growing wheat (Galil variety) as described in Examples 3 and 4, hereinabove. The treatments used in this study are as follows:
B. Negative control (no nitrogen source)
A. Granules prepared according to Example 3, applied at a density of 4 kg granules per 1000 m^2.
C. Granules prepared according to Example 3, applied at a density of 2 kg granules per 1000 m^2.
F. Positive control—full commercial nitrogen. The plants were treated with 30 units of nitrogen per 1000 m^2 by means of applying to this area 60kg urea containing 46% urea.
The following parameters were measured in the wheat, in order to assess the effect of the treatment compositions on plant growth: […]

maize plants [2] = experiment: Maize field trial 3, growth parameters (Example 3); format: in vivo, maize (Zea mays); settings: 3 months after sowing
Experimental: In some of the treatments (as explained hereinbelow), some or all of the active substances were added in the form of granules to the furrow in which the plants had been seeded. The granules were prepared by soaking 1 kg of Perlite granules (having a mean diameter greater than 2 mm) in the following solution: • 50 ml of the concentrated activating agent emulsion (as described above). • 930 ml water. • 10 ml Rhizobium leguminosarum biovar viceae (Cell-Tech™ granular; Monsanto Company) (Granule-R). or Bacillus subtilis (Granule-B) • 10 ml Calirus. • 1000 ml total
This trial was sown during the Israeli growing season of 2018 using the pioneer maize silage variety number W86. The field was washed from possible nitrogen using sprinklers irrigation. The combination treatments administered to the plants which are of relevance for the present study were: • A. Positive Control—full commercial nitrogen. The plants were treated with 30 units of nitrogen per 1000 m^2 by means of applying to this area 60 kg urea containing 46% urea. • B. Negative Control—no added nitrogen. • C. Rhizobium leguminosarum biovar viceae, 3% (containing 10^9 organisms) was added to the activating agent emulsion described in ‘general methods’ hereinabove, to which Calirus (1%) was also added. Perlite granules were soaked with this mixture as described hereinabove. The granules were added to the sowing trench at a density of 2 Kg granules per 1000m^2. • D. As for treatment C, but with the granule quantity adjusted to 1 Kg granules per 1000 m^2. • E. As for treatment C, but with the granule quantity adjusted to 4 Kg granules per 1000 m^2.
The following parameters were monitored at one timepoint during growth of the maize plants, 3 months after they were sown: • Plant stem caliber • Leaf width • Cob weight (taken from the main stems of 10 plants) • Total plant weight (10 plants) • Plant height
The statistical significance of the difference between the various treatment groups was determined using the Tukey-Kramer HSD test.

[3] = tested on: Tomato seedlings inoculated with bacterial and fungal cocktails; experiment: Inoculation of tomato seedlings; format: in vivo; settings: 5 days following treatment; concentration 3; FIG. 31
Experimental: Tomato seedlings were inoculated with 10 cc of each test mixtures containing Rhizobium species and various combinations of activating phytochemicals. (including the bacterial and fungal cocktails described below) […].
The health of each plant was assessed 5 days following treatment, using a semi-quantitative inoculation index (0=healthy, 5=dead).
The composition and concentration of the various test mixtures, as well as the number of different activating agents used in combination are summarized in the following two tables (all concentrations are given as % v/v): […]

NO production = experiment: Inhibition of NO production in activated RAW 264.7 macrophages (Griess assay); format: cell-based; settings: Mus musculus, RAW264.7, 24 h, RAW 264.7 macrophages activated with LPS and IFN-γ
Experimental: RAW 264.7 macrophages were grown in flat-bottomed flasks using a standard growth medium (DMEM supplemented with 5% FBS, antibiotics and glutamine. The cells were maintained in accordance with standard procedures well known in the art. After the cells reached confluence, they were removed from the flasks using mechanical means and then concentrated by centrifuging and resuspended in a small volume of fresh culture medium. The cell concentration was adjusted with growth medium in order that about 75,000 cells could be added to each well of a 96-well plate. A combination of 25 μg/mL LPS and 10 U/ml IFN-γ DMEM, was used for activation of the macrophages. The various test agents were added to the wells one hour prior to activation. The cells were then incubated for a further 24 hours, prior to assaying the inflammatory mediator production and cell viability. The production of NO by the macrophages subjected to the various treatments was assayed using the Griess reagent (equal volumes of 1% sulphanilamide and 0.1% […]-diamine in 5% HCl). 70 μl of supernatant from each test well was transferred to a fresh 96-well plate and mixed with 70 μL of Griess reagent and the violet color produced was measured at 540 nm.

RAW 264.7 macrophages = experiment: Cell viability, Alamar Blue assay; format: cell-based
Experimental: (§1) RAW 264.7 macrophages were grown in flat-bottomed flasks using a standard growth medium (DMEM supplemented with 5% FBS, antibiotics and glutamine. The cells were maintained in accordance with standard procedures well known in the art. After the cells reached confluence, they were removed from the flasks using mechanical means and then concentrated by centrifuging and resuspended in a small volume of fresh culture medium. The cell concentration was adjusted with growth medium in order that about 75,000 cells could be added to each well of a 96-well plate. A combination of 25 μg/mL LPS and 10 U/ml IFN-γ DMEM, was used for activation of the macrophages. The various test agents were added to the wells one hour prior to activation. The cells were then incubated for a further 24 hours, prior to assaying the inflammatory mediator production and cell viability.
The Alamar Blue assay of viability was performed by adding 100 μl of a 10% Alamar Blue solution to each well and incubating at 37° C. for 1-2 hr. Fluorescence was measured (excitation at 545 nm and emission at 595 nm) and expressed as a percentage of the values in untreated control cells.

TNF-α production = experiment: Inhibition of TNF-α production in activated RAW 264.7 macrophages (ELISA); format: cell-based; settings: Mus musculus, RAW264.7; RAW 264.7 macrophages activated with LPS and IFN-γ, 24 hours
Experimental: as §1, with “viability. A sandwich ELISA was used to determine TNF-α concentration. The primary antibody was used at a concentration of 0.5 μg/mL in PBS. Serial dilutions of TNF-α standard from 0 to 1000 pg/mL in diluent (0.05% Tween-20, 0.1% BSA in PBS) were used as internal standard. TNF-α was detected with a biotinylated second antibody and an avidin peroxidase conjugate with TMB as detection reagent. The color development was monitored at 655 nm, taking readings after every 5 minutes. After 25 minutes, the reaction was stopped using 0.5 M sulphuric acid and the absorbance was measured at 450 nm.” for “viability.”

[4] = tested on: Clavibacter michiganensis sp. Michiganensis (Cmm); experiment: Survival of Cmm after co-incubation in test tubes, colony count; format: cell-based; settings: Example 12, contact time 3 days
Experimental: Various combinations of a 3% Rhizobium sp. preparation together with an emulsion containing 5 activating agents (E-91) or one of the components of said emulsion (naringin) and a culture of the plant pathogen Cmm (10^5-10^6 CFU/ml final concentration) were incubated in test tubes for up to 3 days (4 replicates per combination). At the end of the 3 day incubation period the contents of the test tubes containing all these components were plated on to growth medium and the numbers of colonies of Cmm and Rhizobium species for each test condition (CFU/ml) were measured.
The emulsion containing the 5 activating agents (Sclaerol, Naringin, Nootkatone, Stevia and CBD; referred to in the results table hereinbelow as 5% plant emulsion E-91) was prepared as described in Example 6, hereinabove.
This study was conducted in essentially the same manner as the study presented in Example 12. In the present study, however, the effect of the 5-component activating agent emulsion (5% plant emulsion E91) is compared with the following combinations of activating agents: […]

[5] = at the IC50 for inhibition of NO production
[6] = at the IC50 for inhibition of TNF-α production

SMILES: NC(N)=O [A. Positive control - full nitrogen, urea]
AVERAGE N2 CONTENT (total leaf nitrogen) (maize plants [1]): 3.16
Average wheat grain yield (wheat (Galil variety); from each of 6 2 m plots): 1.11 kg
Flag leaf width (wheat (Galil variety); wheat): 2.0 cm
Main shoot diameter (wheat (Galil variety); wheat): 0.42 cm
No. of side shoots (wheat (Galil variety); wheat): 1.3
Average nitrogen content, flag leaves (wheat (Galil variety); wheat flag leaf): 2.94
Total plant weight (10 plants) (maize plants [2]; 10 plants): 11.81 kg
Mean cob weight (10 plants) (maize plants [2]; cobs from the main stems of 10 plants): 3.96 kg
Mean Plant stem caliber (maize plants [2]; maize): 37.2 mm
Mean leaf width (maize plants [2]; maize): 10.5 cm
Plant height (maize plants [2]; mean of 10 plants): 2.72 m

SMILES: C=C(C)[C@@H]1CCC(C)=C[C@H]1c1c(O)cc(CCCCC)cc1O [Cannabidiol (CBD; hemp oil), cannabidiol]
Protection of tomato plants (inoculation index 0=healthy, 5=dead) [3]: highly active even when present as the sole activating agent

SMILES: C[C@@H]1O[C@@H](O[C@H]2[C@H](Oc3cc(O)c4c(c3)O[C@H](c3ccc(O)cc3)CC4=O)O[C@H](CO)[C@@H](O)[C@@H]2O)[C@H](O)[C@H](O)[C@H]1O [Naringin]
IC50 (NO production): 40 µg/mL
Cell viability (% of cell survival) (RAW 264.7 macrophages; [5]): 90.10 ± 4.2%
Cell viability (% of cell survival) (RAW 264.7 macrophages; [6]): 91.50 ± 5.2%
IC50 (TNF-α production): 90 µg/mL
Cmm count, MEAN ([4]; mean of 4 replicates): 7.75 × 10^5 CFU/ml
Cmm count, individual replicates ([4]; replicates 1-4, listed as Cmm + 0.1% Naringin): 6.5 × 10^5 CFU/ml and 8.3 × 10^5 CFU/ml and 7.7 × 10^5 CFU/ml and 8.6 × 10^5 CFU/ml

SMILES: C=C[C@](C)(O)CC[C@@H]1[C@@]2(C)CCCC(C)(C)[C@@H]2CC[C@@]1(C)O [Sclareol]
IC50 (NO production): 40 µg/mL
Cell viability (% of cell survival) (RAW 264.7 macrophages; [5]): 96.20 ± 2.1%
Cell viability (% of cell survival) (RAW 264.7 macrophages; [6]): 95.30 ± 2.2%
IC50 (TNF-α production): 80 µg/mL

IC50 (TNF-α production): 80 µg/mL
SMILES: C=C1C[C@@]23CC[C@H]4[C@@](C)(CCC[C@@]4(C)C(=O)O)[C@@H]2CC[C@]1(O)C3 [Steviol]
